Experiments:
[1] = Viscosity of formulation components; format: physicochemical; details: neat component as listed in formulation tables
[2] = Intranasal versus intravenous pharmacokinetics in New Zealand White rabbits; details: 5 mg/mL in mPEG 350, 50 μL into each nasal cavity
Experimental: In this Example, 10 mg lorazepam is dissolved in 2 mL of mPEG 350 using ultrasound to obtain a solution containing 5 mg/mL of lorazepam. 50 μL of the resulting composition is administered into each nasal cavity of male New Zealand White rabbits held in a supine position during, and then one minute after application. An Eppendorf pipette is used for each application. After administration, blood samples then are harvested from a marginal ear vein at 0, 2, 5, 10, 15, 30 and 60 minutes, and the lorazepam concentration determined by high performance liquid chromatography (HPLC). The pharmacokinetics of lorazepam delivery via intranasal administration can then be compared with the pharmacokinetics of lorazepam delivery by intravenous administration.
In this Example, 10 mg of midazolam is dissolved in 2 mL of mPEG 350 using ultrasound to obtain a solution containing 5 mg/mL midazolam. 50 μL of the resulting composition is then administered into each nasal cavity of male New Zealand White rabbits, held in a supine position during, and then one minute after application. After administration, blood samples then are harvested from a marginal ear vein at 0, 2, 5, 10, 15, 30 and 60 minutes, and the midazolam concentration determined by HPLC. […]

[3] = after nasal administration, adults; cited from earlier work
[4] = nasal gel, carbopol in PEG 400, rats; cited from earlier work

| Structure (SMILES) | Viscosity (cP) of component [1] [cP] | Pharmacokinetics of intranasal versus intravenous administration [2] | other results |
| --- | --- | --- | --- |
| CC(O)CO (stereo not drawn) [Propylene glycol] | 40 | – | – |
| O [Water] | 1 | – | – |
| O=C1Nc2ccc(Cl)cc2C(c2ccccc2Cl)=NC1O (stereo not drawn) [lorazepam] | – | comparable to those of the intravenously administered lorazepam | Time to peak concentration [3]: 2.3 h |
| Cc1ncc2n1-c1ccc(Cl)cc1C(c1ccccc1F)=NC2 [midazolam] | – | comparable to those of the intravenously administered midazolam | – |
| COC(=O)C1=C(C)NC(C)=C(C(=O)OC)C1c1ccccc1[N+](=O)[O-] [nifedipine] | – | – | Time to peak plasma concentration [4]: 30 min |

Source: patent publication US10052333B2, “Methods and systems for the delivery of a therapeutic agent” (HANANJA EHF, priority 2007, dated 2018)
